# Measured values: BindingDB's records for patent US20250313535 (Dice Molecules Sv, 2025)
# Biological target: Integrin alpha-4/beta-7 (Homo sapiens, UniProt P13612+P26010)
# Experiment: Inhibition of α4β7 and α4β1 Integrins
# Method: MAdCAM (R&D Systems, 0.1 ug) was diluted in 50 μL PBS, added to each well of an opaque ELISA plate (Thermo), and incubated overnight at 4° C. Coated plates were washed once with PBS and then blocked with 200 μL of assay buffer (10 mM HEPES, 150 mM NaCl, 1 mM MnCl2, 0.1 mM CaCl2), 1% BSA) for 1 hour at 37° C. and 5% CO2. After incubation, buffer was aspirated from the plates and 50 μL of fresh assay buffer is added. Compounds were added by a compouns dispenser (Tecan) and DMSO concentration was normalized to 1% across each plate. 50 μL of RPMI-8866 cells (2×10^6 per mL) were added to each well and the plates were incubated for 1 hour at 37° C. and 5% CO2. After incubation, plates were allowed to cool to RT for 10 minutes before being washed four times in assay buffer by an automated plate washer (BioTek). After washing, 100 μL of a 1:1 mixture of assay buffer and CellTiter GLO 2.0 reagent (Promega) were added to each well. Plates were mixed for 2 minutes at 1000 rpm and then allowed to incubate an additional 10 minutes before reading out luminescence on a Tecan Spark plate reader. Raw data was converted to percent inhibition based on DMSO only and control compound wells, and curves were analyzed by 4-parameter fit within Dotmatics software.
# Sequence of Integrin alpha-4/beta-7 (P13612 whole entry): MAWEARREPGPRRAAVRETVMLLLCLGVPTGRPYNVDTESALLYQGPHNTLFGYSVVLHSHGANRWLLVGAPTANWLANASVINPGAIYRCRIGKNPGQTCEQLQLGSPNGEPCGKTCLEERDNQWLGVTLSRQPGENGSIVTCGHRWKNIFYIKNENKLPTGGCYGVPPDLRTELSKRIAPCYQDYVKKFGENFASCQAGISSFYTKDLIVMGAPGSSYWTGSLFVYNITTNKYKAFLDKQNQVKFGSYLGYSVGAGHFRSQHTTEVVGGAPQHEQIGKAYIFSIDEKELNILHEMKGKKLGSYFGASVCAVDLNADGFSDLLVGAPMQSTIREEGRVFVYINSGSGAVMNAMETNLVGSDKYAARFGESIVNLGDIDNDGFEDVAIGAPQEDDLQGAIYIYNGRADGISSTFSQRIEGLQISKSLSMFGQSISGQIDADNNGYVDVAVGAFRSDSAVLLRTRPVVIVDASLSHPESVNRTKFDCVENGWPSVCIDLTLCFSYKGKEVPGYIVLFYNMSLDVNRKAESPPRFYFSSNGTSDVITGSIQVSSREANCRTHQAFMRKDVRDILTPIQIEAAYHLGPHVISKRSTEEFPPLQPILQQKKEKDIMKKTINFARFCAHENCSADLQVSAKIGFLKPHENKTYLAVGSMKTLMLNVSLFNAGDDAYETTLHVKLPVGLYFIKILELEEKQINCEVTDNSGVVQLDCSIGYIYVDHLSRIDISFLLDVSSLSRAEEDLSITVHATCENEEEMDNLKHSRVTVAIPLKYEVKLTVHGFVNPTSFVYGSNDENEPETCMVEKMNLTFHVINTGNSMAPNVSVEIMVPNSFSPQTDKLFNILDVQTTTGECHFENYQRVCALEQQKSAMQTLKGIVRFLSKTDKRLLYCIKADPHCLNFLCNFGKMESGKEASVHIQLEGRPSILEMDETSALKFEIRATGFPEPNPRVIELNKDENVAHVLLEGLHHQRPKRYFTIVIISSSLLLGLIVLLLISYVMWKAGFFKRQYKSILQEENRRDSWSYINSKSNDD
# Sequence of Integrin alpha-4/beta-7 (P26010 whole entry): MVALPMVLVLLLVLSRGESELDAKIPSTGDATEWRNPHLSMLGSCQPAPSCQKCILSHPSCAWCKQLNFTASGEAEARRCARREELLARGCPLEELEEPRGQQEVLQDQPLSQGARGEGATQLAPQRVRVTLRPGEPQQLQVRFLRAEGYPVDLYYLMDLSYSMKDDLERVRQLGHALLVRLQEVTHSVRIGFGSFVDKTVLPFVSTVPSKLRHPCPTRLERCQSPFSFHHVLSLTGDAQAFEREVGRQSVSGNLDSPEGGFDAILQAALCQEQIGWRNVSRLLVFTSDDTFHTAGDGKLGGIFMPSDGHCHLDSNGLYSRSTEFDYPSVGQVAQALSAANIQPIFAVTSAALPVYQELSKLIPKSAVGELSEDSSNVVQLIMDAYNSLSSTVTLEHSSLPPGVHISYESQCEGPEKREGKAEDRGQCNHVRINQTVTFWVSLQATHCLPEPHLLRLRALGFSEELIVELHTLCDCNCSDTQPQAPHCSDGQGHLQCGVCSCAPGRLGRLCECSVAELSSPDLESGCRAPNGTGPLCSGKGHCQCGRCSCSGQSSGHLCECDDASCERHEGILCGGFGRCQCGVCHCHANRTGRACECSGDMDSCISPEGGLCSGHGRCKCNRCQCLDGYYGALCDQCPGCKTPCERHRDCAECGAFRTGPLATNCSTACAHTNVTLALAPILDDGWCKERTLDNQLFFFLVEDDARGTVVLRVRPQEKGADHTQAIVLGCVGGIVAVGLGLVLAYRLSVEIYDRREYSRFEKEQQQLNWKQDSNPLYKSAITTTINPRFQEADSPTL
row,IC50 [nM],SMILES
1,> 100,"Cn1c(=O)c(-c2cccc3c(C[C@H](NC(=O)c4c(F)cc(NC5CCC(F)(F)C5)cc4F)C(=O)O)cccc23)c(C(F)(F)F)c2ccccc21 (some centres not stated) [US20250313535, Compound 386]"
2,< 10,"Cn1ccc(C(F)(F)F)c(-c2nccc3c(C[C@H](NC(=O)c4c(F)cc(N(CC(F)(F)F)CC(F)(F)F)cc4F)C(=O)O)cccc23)c1=O [US20250313535, Compound 237]"
